ChEMBL document CHEMBL3430912, “GSK Tres Cantos Anti-Kinetoplastid Screening (TCAKS) Data”

Tests used:
Trypanosoma cruzi [1] = assay: GSK_TCAKS: pIC50 Trypanosoma cruzi viability assay using beta-GAL activity. This assay was run at single shot at 5uM compound concentration per well. The biological reagents consisted of NIH-3T3 host cells and trypomastigotes parasitic cells; both cell types were set to a 3.3 * 10^5 cells/mL dilution in assay DMEM by means of a CASY cell counter device using a 60um capillary. 6 uL of the mixture were dispensed per well (about 1 * 10^3 host-cells and 1 * 10^3 parasites) with a Multidrop Combi dispenser. […] In all wells, the percentage of DMSO never exceeded 0.5%. Plates incubated for four days at 37C, 5% CO2. The substrate used for the assay fluorescence intensity (FLINT) readout was resorufin-beta-D-galactopiranoside (Sigma-Aldrich) at 5uM per well. It was diluted in PBS supplemented with the soft detergent Igepal (Fluka).; type: functional, organism-based, Mus musculus; settings: Tulahuen, NIH3T3
Trypanosoma cruzi [2] = assay: (§1) GSK_TCAKS: pIC50 Trypanosoma cruzi Imaging: Infected Cells. […] Cells were then washed once with PBS before infection. T. cruzi trypomastigotes, collected at days 5 to 8 after infection from LLC-MK2 parasite infected cultures, were allowed to swim out for 4h at 37C from a centrifuged pellet (2,500 rpm/10 min/room temperature). Trypomastigotes were then collected and counted in a CASY Cell Counter. Trypomastigotes, in supplemented DMEM, were added to H9c2 cultures in a multiplicity of infection of 1 and incubated for 18 h. Cells were washed once with PBS before incubation of the infected H9c2 monolayer with trypsin (Life-Technologies) to detach cells from the flask. Cells were counted in a CASY Cell Counter using a 150 um capillary and their density set at 5 * 10^4 cells per mL in supplemented assay DMEM. Infected H9c2 were dispensed into 384-well poly-lysine coated assay plates at 50uL per well using a Multidrop Combi dispenser. After seeding them, the plates were incubated at 37C, 5% CO2 for 72h. Cultures were then fixed and stained by addition of 50 uL of a solution containing 8% formaldehyde and 4 uM DRAQ5 DNA dye (BioStatus, UK) per well. […] Five images were collected per well for reliable statistical analysis. Automated image analysis was performed with a script developed on Acapella High Content Imaging and Analysis Software (PerkinElmer). Output: percentage of infected cells per well as a second infection marker.; type: functional, organism-based, Rattus norvegicus; settings: H9c2, 4 h
Trypanosoma cruzi [3] = assay: GSK_TCAKS: pIC50 Trypanosoma cruzi Imaging: Amastigotes/Cell. […] Cells were then washed once with PBS before infection. T. cruzi trypomastigotes, collected at days 5 to 8 after infection from LLC-MK2 parasite infected cultures, were allowed to swim out for 4h at 37C from a centrifuged pellet (2,500 rpm/10 min/room temperature). Trypomastigotes were then collected and counted in a CASY Cell Counter. Trypomastigotes, in supplemented DMEM, were added to H9c2 cultures in a multiplicity of infection of 1 and incubated for 18 h. Cells were washed once with PBS before incubation of the infected H9c2 monolayer with trypsin (Life-Technologies) to detach cells from the flask. Cells were counted in a CASY Cell Counter using a 150 um capillary and their density set at 5 * 10^4 cells per mL in supplemented assay DMEM. Infected H9c2 were dispensed into 384-well poly-lysine coated assay plates at 50uL per well using a Multidrop Combi dispenser. After seeding them, the plates were incubated at 37C, 5% CO2 for 72h. Cultures were then fixed and stained by addition of 50 uL of a solution containing 8% formaldehyde and 4 uM DRAQ5 DNA dye (BioStatus, UK) per well. […] Five images were collected per well for reliable statistical analysis. Automated image analysis was performed with a script developed on Acapella High Content Imaging and Analysis Software (PerkinElmer). Output: number of amastigotes per cell as infection level measurement.; type: functional, organism-based, Rattus norvegicus; settings: H9c2, 4 h
Trypanosoma cruzi [4] = assay: as §1, with “H2C9” for “Trypanosoma cruzi”, “H9c2 Host Cardiomyocytes.” for “Infected Cells.”, “Number” for “percentage”, “H9c2 Host Cardiomyocytes nuclei to determine drug-related cytotoxicity.” for “infected cells per well as a second infection marker.”; type: functional, organism-based, Rattus norvegicus; settings: H9c2, 4 h
Leishmania donovani [5] = assay: GSK_TCAKS: pIC50 Leishmania donovani viability assay using fluorescence intensity. Assay plates (1536-well) were prepared by adding 30nL per well of compound. For single shot assay, the final compound concentration was 5uM. […] Briefly, eGFP LdBOB axenic amastigotes were harvested, fixed and counted in a CASY cell counter (Roche-Applied Science). A final concentration of 1.5 * 10^5 cells per well were prepared in amastigote media containing 500 U/mL penicillin/streptomycin (Invitrogen) and 6uL was dispensed to each experimental well using a Multidrop Combi dispenser (Thermo Scientific). 6uL of assay media was dispensed to control columns used as reference for 100% compound response. Following incubation for 72 h at 37C, 5% CO2, 2 uL of resazurin was added to each well at a final concentration of 0.5 mM in phosphate buffered saline (PBS) with IGEPAL (Sigma-Aldrich), 0.05% (v/v).; type: functional, organism-based
Leishmania donovani [6] = assay: GSK_TCAKS: pIC50 Leishmania donovani Imaging: Infected Macrophages. Assay plates (384-well) were prepared by adding 250nL of compound to each well. For single shot assay, the final compound concentration was 5 uM. […] Automated image analysis was performed with a script developed on Acapella High Content Imaging and Analysis Software (PerkinElmer). Output: Percent of infected macrophage cells were reported for each well.; type: functional, organism-based, Homo sapiens; settings: THP-1
Leishmania donovani [7] = assay: GSK_TCAKS: pIC50 Leishmania donovani Imaging: Amastigotes/Macrophages. Assay plates (384-well) were prepared by adding 250nL of compound to each well. For single shot assay, the final compound concentration was 5 uM. […] Automated image analysis was performed with a script developed on Acapella High Content Imaging and Analysis Software (PerkinElmer). Output: Average number of amastigotes per macrophage cell were reported for each well.; type: functional, organism-based, Homo sapiens; settings: THP-1
Leishmania donovani [8] = assay: GSK_TCAKS: pIC50 Leishmania donovani Imaging: THP-1 Host Macrophages. Assay plates (384-well) were prepared by adding 250nL of compound to each well. For single shot assay, the final compound concentration was 5 uM. […] Automated image analysis was performed with a script developed on Acapella High Content Imaging and Analysis Software (PerkinElmer). Output: THP-1 cell count were reported for each well.; type: functional, organism-based, Homo sapiens
[9] = tested on: Trypanosoma brucei brucei; assay: GSK_TCAKS: pIC50 Trypanosoma brucei viability assay using fluorescence intensity. Assay plates (1536-well) were prepared by dispensing 25nL of compound solution per well using an Echo acoustic dispenser (Labcyte).; type: functional, organism-based; settings: Lister 427, 2 h
[10] = tested on: Trypanosoma brucei brucei; assay: GSK_TCAKS: pIC50 Trypanosoma brucei viability assay using luminiscence. Assay plates (1536-well) were prepared. T. brucei cultures were harvested and counted in a CASY cell counter. A parasite suspension was prepared at a final concentration of 5 * 10^4 cells/mL in complete HMI9 medium and 6uL was dispensed to all wells containing compounds using a Multidrop Combi dispenser. 6uL of HMI9 media with 0.4% DMSO were dispensed to control columns. Plates were incubated for 24 h at 37C, 5% CO2 then tempered for 10 min at room temperature. ATP content was quantified by adding 4 uL of CellTiter-Glo Reagent (Promega) according to the manufacturer's instructions. Luminescence was measured using a ViewLux.; type: functional, organism-based; settings: Lister 427, CASY
[11] = GSK_TCAKS: pIC50 HepG2 human cell line viability assay using luminiscence. […] Seeding density was checked to ensure that new mono-layers were not more than 50% confluent at the time of harvesting. Cell suspension was added to 500 mL of the same medium at a final density of 1.2 * 10^5 cells/mL. This cell suspension was dispensed (25 uL, 3000 cells per well) into 384-well clear-bottom plates using a Multidrop Combi dispenser. Prior to addition of the cell suspension, the screening compounds (250 nL) were pre-dispensed into the plates with an Echo liquid handler. Plates were incubated for 48 h at 37C, 5% CO2. After incubation, plates equilibrated at room temperature for 30 min before proceeding to develop the luminescent signal. The signal developer, CellTiter-Glo Reagent, was allowed to equilibrate at room temperature for 30 min and added to the plates (25uL per well) using a Multidrop Combi dispenser. Plates were left for 10 min at room temperature for stabilization and then read using a ViewLux.; type: toxicity, cell-based
NIH3T3 = assay: GSK_TCAKS: pIC50 NIH 3T3 cell line viability assay using luminiscence. Tissue culture surface treated assay plates (1536-well) were used. […] The 100% cells survival control was determined exposing the host-cells to a 0.5% DMSO concentration, whereas the 100% toxicity control was achieved by seeding the cells in presence of Amphotericin B at 50uM. Plates were incubated for four days at 37C, 5% CO2. The assay readout was developed by addition of 5uL of CellTiter-Glo Reagent following the manufacturer's instructions. Luminiscence was measured using a ViewLux.; type: functional, cell-based; settings: Mus musculus, NIH3T3, 96 h
[12] = target: Sterol 14-alpha demethylase (Trypanosoma cruzi (strain CL Brener), UniProt Q7Z1V1); assay: GSK_TCAKS: pIC50 CYP51 from Trypanosoma cruzi.; type: functional
Chain of Sterol 14-alpha demethylase (Q7Z1V1 whole entry): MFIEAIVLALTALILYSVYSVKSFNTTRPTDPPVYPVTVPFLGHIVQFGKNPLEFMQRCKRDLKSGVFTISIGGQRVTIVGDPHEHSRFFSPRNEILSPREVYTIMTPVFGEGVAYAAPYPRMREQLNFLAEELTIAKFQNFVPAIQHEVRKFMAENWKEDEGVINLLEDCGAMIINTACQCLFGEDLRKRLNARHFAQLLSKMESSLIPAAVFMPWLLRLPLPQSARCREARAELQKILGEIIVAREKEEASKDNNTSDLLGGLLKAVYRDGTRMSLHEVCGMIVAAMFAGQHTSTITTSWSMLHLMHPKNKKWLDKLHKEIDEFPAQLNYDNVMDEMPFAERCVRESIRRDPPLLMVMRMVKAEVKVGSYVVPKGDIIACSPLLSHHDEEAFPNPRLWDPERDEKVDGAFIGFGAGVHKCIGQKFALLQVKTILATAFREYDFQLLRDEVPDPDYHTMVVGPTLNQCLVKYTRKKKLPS

SMILES: CNc1cncc(C2CCCN2C(=O)Cc2coc3cc(C)ccc23)n1 (stereo unspecified)
- IC50 (Trypanosoma cruzi [1]): 0.158 µM
- IC50 (Trypanosoma cruzi [2]): 0.2 µM
- IC50 (Trypanosoma cruzi [3]): 0.2 µM
- IC50 (Trypanosoma cruzi [4]): > 50.1 µM
- IC50 (Leishmania donovani [5]): 3.16 µM
- IC50 (Leishmania donovani [6]): > 50.1 µM
- IC50 (Leishmania donovani [7]): 0.794 µM
- IC50 (Leishmania donovani [8]): > 50.1 µM
- IC50 [9]: > 39.8 µM
- IC50 [10]: > 39.8 µM
- IC50 at 48 h [11]: > 100 µM
- IC50 (NIH3T3): > 50.1 µM
- IC50 [12]: 0.0251 µM

SMILES: CNc1cncc(C2CCCN2C(=O)Cc2ccc3ccccc3c2)n1 (stereo unspecified)
- IC50 (Trypanosoma cruzi [1]): 0.0794 µM
- IC50 (Trypanosoma cruzi [2]): 0.158 µM
- IC50 (Trypanosoma cruzi [3]): 0.158 µM
- IC50 (Trypanosoma cruzi [4]): > 50.1 µM
- IC50 (Leishmania donovani [5]): > 50.1 µM
- IC50 (Leishmania donovani [6]): > 50.1 µM
- IC50 (Leishmania donovani [7]): > 50.1 µM
- IC50 (Leishmania donovani [8]): > 50.1 µM
- IC50 [9]: > 39.8 µM
- IC50 [10]: > 39.8 µM
- IC50 at 48 h [11]: > 100 µM
- IC50 (NIH3T3): > 50.1 µM
- IC50 [12]: 0.1 µM

SMILES: O=C(NCCc1n[nH]c(-c2ccc(F)c(F)c2)n1)C1CCCCC1
- IC50 (Trypanosoma cruzi [1]): 2 µM
- IC50 (Trypanosoma cruzi [2]): 2.51 µM
- IC50 (Trypanosoma cruzi [3]): 1.58 µM
- IC50 (Trypanosoma cruzi [4]): > 50.1 µM
- IC50 (Leishmania donovani [5]): > 50.1 µM
- IC50 (Leishmania donovani [6]): > 50.1 µM
- IC50 (Leishmania donovani [7]): 15.8 µM
- IC50 (Leishmania donovani [8]): 20 µM
- IC50 [9]: 0.501 µM
- IC50 [10]: 1 µM
- IC50 at 48 h [11]: > 100 µM
- IC50 (NIH3T3): > 50.1 µM
- IC50 [12]: 25.1 µM

SMILES: COc1ccc(CN2CCCCC2c2nc(-c3cccnc3)no2)cc1 (stereo unspecified)
- IC50 (Trypanosoma cruzi [1]): 0.794 µM
- IC50 (Trypanosoma cruzi [2]): 0.794 µM
- IC50 (Trypanosoma cruzi [3]): 0.631 µM
- IC50 (Trypanosoma cruzi [4]): > 50.1 µM
- IC50 (Leishmania donovani [5]): > 50.1 µM
- IC50 (Leishmania donovani [6]): > 50.1 µM
- IC50 (Leishmania donovani [7]): > 50.1 µM
- IC50 (Leishmania donovani [8]): > 50.1 µM
- IC50 [9]: > 39.8 µM
- IC50 [10]: > 39.8 µM
- IC50 at 48 h [11]: > 100 µM
- IC50 (NIH3T3): > 50.1 µM
- IC50 [12]: 0.2 µM

SMILES: COc1ccc(C(=O)N2CCC(Nc3cccnc3)C2)c(OC)n1 (stereo unspecified)
- IC50 (Trypanosoma cruzi [1]): 0.316 µM
- IC50 (Trypanosoma cruzi [2]): 0.794 µM
- IC50 (Trypanosoma cruzi [3]): 0.794 µM
- IC50 (Trypanosoma cruzi [4]): > 50.1 µM
- IC50 (Leishmania donovani [5]): 15.8 µM
- IC50 (Leishmania donovani [6]): > 50.1 µM
- IC50 (Leishmania donovani [7]): > 50.1 µM
- IC50 (Leishmania donovani [8]): > 50.1 µM
- IC50 [9]: > 39.8 µM
- IC50 [10]: > 39.8 µM
- IC50 at 48 h [11]: > 100 µM
- IC50 (NIH3T3): > 50.1 µM
- IC50 [12]: 0.0631 µM

SMILES: OCCCNc1nc(Nc2ccncc2)nc2ccccc12
- IC50 (Trypanosoma cruzi [1]): 0.708 µM
- IC50 (Trypanosoma cruzi [2]): 1.26 µM
- IC50 (Trypanosoma cruzi [3]): 0.2 µM
- IC50 (Trypanosoma cruzi [4]): > 50.1 µM
- IC50 (Leishmania donovani [5]): 39.8 µM
- IC50 (Leishmania donovani [6]): > 50.1 µM
- IC50 (Leishmania donovani [7]): > 50.1 µM
- IC50 (Leishmania donovani [8]): > 50.1 µM
- IC50 [9]: 25.1 µM
- IC50 [10]: > 39.8 µM
- IC50 at 48 h [11]: > 100 µM
- IC50 (NIH3T3): > 50.1 µM
- IC50 [12]: > 100 µM

SMILES: Cc1nn(C)c(Cl)c1CN(Cc1cccnc1)Cc1ccsc1
- IC50 (Trypanosoma cruzi [1]): 0.178 µM
- IC50 (Trypanosoma cruzi [2]): 0.316 µM
- IC50 (Trypanosoma cruzi [3]): 0.316 µM
- IC50 (Trypanosoma cruzi [4]): > 50.1 µM
- IC50 (Leishmania donovani [5]): 2 µM
- IC50 (Leishmania donovani [6]): > 50.1 µM
- IC50 (Leishmania donovani [7]): 3.16 µM
- IC50 (Leishmania donovani [8]): > 50.1 µM
- IC50 [9]: > 39.8 µM
- IC50 [10]: > 39.8 µM
- IC50 at 48 h [11]: > 100 µM
- IC50 (NIH3T3): 20 µM
- IC50 [12]: 0.0631 µM
